Test results reported in publication PMC12593965, “Determination of Retention Behavior and pK a Values of Some Phenothiazines with Green Chemistry Approach” (ACS Omega, 2025).
Like-named read-outs stand apart in the source and are kept apart here.

Columns and labels:
[1] = RPLC determination of sspKa in ACN-water binary mixtures (conventional RPLC); type: physicochemical; settings: standard deviation in parentheses
Procedure: (§1) The analysis of the compounds on the HPLC column was determined in binary mixtures of ACN–water and EtOH–water containing 50, 55, and 60% (v/v) organic solvents at varying pH values (5.5–11.5). Buffer compounds containing 30 mM o-H3PO4 and NH4Cl at the same concentration were used in the mobile phases according to the pH values at which the buffers were effective.
(§2) The pH value of the mobile phase was adjusted by adding a 1 M NaOH solution to the mobile phase containing o-H3PO4 and by adding concentrated NH3 solution to the mobile phase containing ammonium chloride. The pH values of the binary mixtures in this mobile phase were evaluated according to the International Union of Pure and Applied Chemistry (IUPAC) guideline, taking into account the reference pH values obtained from the National Institute of Standards and Technology (NIST). − KHP (0.05 mol/kg) was used as a reference standard for electrode calibration in hydroorganic mixtures. The pH value (pHx) of this hydroorganic mixture can be determined by eq . pHx=pHs+Es−Ex/(ln10)RT/F 1
(§3) Solutions of the investigated compounds in binary mixtures were prepared daily. Standard solutions at 100 μg/mL concentrations were prepared in the studied mobile phase. Fresh solutions were prepared daily and stored at +4 °C in the dark until analysis. For testing, a 20 μL sample was injected three times into the HPLC instrument. The average t R was calculated from these replicates, showing precision with a relative standard deviation (%RSD) of approximately 0.01.
(§4) This liquid chromatographic study was performed at 25 and 37 °C. Chromatographic determination of the compounds was performed on a Kinetex EVO C18 (Phenomenex, 150 × 4.6 mm ID, 5 μm) core–shell column at a constant flow rate of 1 mL/min. There are no data in the literature regarding the determination of the retention behavior of compounds by analysis with HPLC columns produced with the core–shell technique. Additionally, the theoretical plate number of the column being 2000 and above and the tailing factor being below 2 indicate optimum column performance and satisfactory peak symmetry.
(§5) The t R values of promethazine, promazine, and trimeprazine for the study on the HPLC column were determined by using the RPLC method at different pH values in binary mixtures. The s ^spK a values of the ionizable and molecular forms (BH^+, B) were calculated using the nonlinear regression program (NLREG).
(§6) The intrinsic t R (t RBH^+ , t RB) and s ^spK a values of the studied compounds were calculated in the NLREG program using the average t R values determined depending on the changing EtOH and ACN concentrations and pH values in the mobile phase. It is seen that the standard deviation values of the sigmoidal fitting parameters (t RBH^+ , t RB, and s ^spK a) given in Table are very small. Since good results were obtained by using the t R value directly, the k value was not used. Although the changes in s ^spK a values according to the solvent composition in the mobile phase used were different for each compound, the same type of sigmoidal behavior was obtained as in Figure . The s ^spK a of basic compounds decreases mainly due to electrostatic interactions that contribute to the pK a value. Since ACN (0.46) and EtOH (0.65) have lower relative polarity compared to water (1.00), the solute–solvent polar interaction decreases as the amount of organic solvent in the mobile phase increases. Therefore, the t R value increases as the pH value of the mobile phase increases, while the t R value decreases as the amount of organic solvents in the mobile phase increases. In the mobile phase rich in ACN (0.25 ≤ X ACN ≤ 0.33) and EtOH (0.26 ≤ X EtOH ≤ 0.35), preferential solvation with water exists, and this can explain the decrease in the s ^spK a values of the studied compounds when the amount of organic solvent in the mobile phase increases. ,

[2] = RPLC determination of sspKa in EtOH-water binary mixtures (green RPLC); type: physicochemical; settings: standard deviation in parentheses
Procedure: as §1, §2, §3, §4, §5, §6

[3] = Aqueous pKa (wwpKa) calculated from sspKa via X solvent - sspKa and 1/ε - sspKa linear relationships; type: physicochemical; settings: for wwpKa, 1/εACN - sspKa approach / wwpKa, X ACN - sspKa approach: from ACN-water data; for wwpKa, 1/εEtOH - sspKa approach / wwpKa, X EtOH - sspKa approach: from EtOH-water data
Procedure: The w ^wpK a values of promethazine, promazine, and trimeprazine in a water medium were determined by evaluating the obtained s ^spK a values of the compounds with the X solvent – s ^spK a , and the reciprocal of the solvent’s dielectric constant (1/ε) – s ^spK a relationships.
In this study, the w ^wpK a values of the examined compounds were determined based on the mole fraction of solvent-s ^spK a (X solvent – s ^spK a) and 1/εsolvent – s ^spK a approaches. In the calculation using the solvent mole fraction, the intercept values of the equation obtained from the linear relationship between the organic solvent X solvent and s ^spK a give the w ^wpK a values of the compounds examined.
To confirm the computed w ^wpK a values, an alternative approach was employed. Within the scope of the study, the correlation between the inverse of the dielectric constant value of the organic solvent (1/ε) and the s ^spK a values of the compounds was utilized. Since the ε values depend on the temperature, these values were taken from Gagliardi et al. and Navarkhele and Navarkhele for the two temperatures under study. , In the obtained linear equations, ε values in the water environment were used for increasing temperatures, and w ^wpK a values for the compounds could be determined. There was a decrease in the dielectric constant with the decrease in solvent polarity.
Figure illustrates the linear relationship between the solvent’s macroscopic constant X solvent and s ^spK a values.

[4] = Percent ionization of the basic functional group by Henderson-Hasselbach equation; type: physicochemical; settings: from wwpKa at 37 °C (EtOH-water)
Source text: Drug molecules can ionize at different pH ranges, and the pK a value serves as a universal measure of ionization. […] Changing the ionic form of a drug can affect its action, absorption, and therapeutic efficacy depending on the pH of the medium. Therefore, evaluating the degree of ionization of the compounds selected in this study is crucial. Using the Henderson–Hasselbach equation, the percent ionization and pK a (at 50% ionization) of the basic functional group of each compound at different pH values were calculated (Figure S4). Since a green chemistry approach was preferred in this study, the w ^wpK a values at 37 °C, determined from data obtained from an EtOH-water binary mixture, were used in the calculation of the percentage ionization. […] At a pH value 2 pH units above the pK a, the basic compound is in its un-ionized form. It is known that the hydrophilic properties of compounds decrease as the alkyl chain length increases. According to the data in Table S2, the percentage ionization values increase as the alkyl chain length increases.

[5] = cited from earlier work
[6] = source not stated; cited from earlier work

| Compound | sspKa ([1]; 50% (v/v) ACN-water, 25 °C) | sspKa ([1]; 50% (v/v) ACN-water, 37 °C) | sspKa ([1]; 55% (v/v) ACN-water, 25 °C) | sspKa ([1]; 55% (v/v) ACN-water, 37 °C) | sspKa ([1]; 60% (v/v) ACN-water, 25 °C) | sspKa ([1]; 60% (v/v) ACN-water, 37 °C) | sspKa ([2]; 50% (v/v) EtOH-water, 25 °C) | sspKa ([2]; 50% (v/v) EtOH-water, 37 °C) | sspKa ([2]; 55% (v/v) EtOH-water, 25 °C) | sspKa ([2]; 55% (v/v) EtOH-water, 37 °C) | sspKa ([2]; 60% (v/v) EtOH-water, 25 °C) | sspKa ([2]; 60% (v/v) EtOH-water, 37 °C) | wwpKa, 1/εACN - sspKa approach ([3]; 25 °C) | wwpKa, X ACN - sspKa approach ([3]; 25 °C) | wwpKa, 1/εACN - sspKa approach ([3]; 37 °C) | wwpKa, 1/εEtOH - sspKa approach ([3]; 25 °C) | wwpKa, X EtOH - sspKa approach ([3]; 25 °C) | wwpKa, 1/εEtOH - sspKa approach ([3]; 37 °C) | wwpKa, X EtOH - sspKa approach ([3]; 37 °C) | % Ionization value ([4]; pH 2.0) [%] | also measured |
| --- | --- | --- | --- | --- | --- | --- | --- | --- | --- | --- | --- | --- | --- | --- | --- | --- | --- | --- | --- | --- | --- |
| CN(C)CCCN1c2ccccc2Sc2ccccc21 [promazine] | 9.265 (0.088) | 9.195 (0.036) | 9.096 (0.012) | 9.042 (0.082) | 8.867 (0.009) | 8.857 (0.082) | 9.185 (0.042) | 9.048 (0.024) | 8.978 (0.008) | 8.914 (0.053) | 8.808 (0.042) | 8.805 (0.066) | 10.361 | 10.468 | 10.120 | 10.302 | 10.407 | 9.766 | 9.836 | 100 | wwpKa, X ACN - sspKa approach ([3]; 37 °C): 10.213; % Ionization value ([4]; pH 7.4): 99.635%; % Ionization value ([4]; pH 9.0): 87.269%; % Ionization value ([4]; pH 10.0): 40.670%; % Ionization value ([4]; pH 12.0): 0.681%; pKa, literature values ([5]; 37 °C): 9.11 ± 0.03; logP [6]: 3.75 |
| CC(CN1c2ccccc2Sc2ccccc21)N(C)C (stereo not shown) [promethazine] | 9.167 (0.064) ^a | 9.108 (0.045) | 9.007 (0.064) | 8.947 (0.097) | 8.868 (0.075) | 8.806 (0.053) | 9.117 (0.011) ^a | 8.926 (0.082) | 8.999 (0.008) | 8.824 (0.009) | 8.900 (0.071) | 8.666 (0.031) | 9.980 | 10.056 | 9.924 | 9.761 | 9.821 | 9.716 | 9.787 | 100 | wwpKa, X ACN - sspKa approach ([3]; 37 °C): 10.006; % Ionization value ([4]; pH 7.4): 99.591%; % Ionization value ([4]; pH 9.0): 85.962%; % Ionization value ([4]; pH 10.0): 37.979%; % Ionization value ([4]; pH 12.0): 0.609%; logP [6]: 3.14 |
| CC(CN(C)C)CN1c2ccccc2Sc2ccccc21 (stereo not shown) [trimeprazine] | 9.643 (0.078) | 9.470 (0.073) | 9.527 (0.038) | 9.329 (0.050) | 9.425 (0.062) | 9.202 (0.047) | 9.388 (0.012) | 9.329 (0.034) | 9.278 (0.016) | 9.243 (0.091) | 9.167 (0.034) | 9.118 (0.045) | 10.134 | 10.268 | 10.112 | 10.049 | 10.110 | 9.968 | 10.027 | 100 | % Ionization value ([4]; pH 7.4): 99.765%; % Ionization value ([4]; pH 9.0): 91.410%; % Ionization value ([4]; pH 10.0): 51.554%; % Ionization value ([4]; pH 12.0): 1.053%; pKa, literature values ([5]; 25 °C, different methods (CE, potentiometry, UV-Vis)): 10.12; logP [6]: 4.11 |
